Experimental data reported in PubChem BioAssay AID180 (DTP/NCI, 2004).
Values joined by “and” are separate entries in the source; they are usually repeats but may differ in a detail not shown here. Identical values can stand only once.

System: BDF1 mice, Adenocarcinoma 755 s.c., tumor weight T/C
Test: NCI In Vivo Anticancer Drug Screen. Data for tumor model Adenocarcinoma 755 (subcutaneous) in B6D2F1 (BDF1) mice
Settings: endpoint: mean tumor weight, higher = larger tumour
In short: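 Compound activity was tested in mice carrying transplanted tumors. Survival or tumor size was measured, and each value is the treated-group measurement divided by that of the vehicle-treated control group (T/C).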

[1] = dose: 170.0 mg/kg/injection, schedule: Q01DX011 (sc), vehicle: steriod suspending solution
[2] = dose: 340.0 mg/kg/injection, schedule: Q01DX011 (sc), vehicle: steriod suspending solution
[3] = dose: 50.0 mg/kg/injection, schedule: Q01DX011 (ip), vehicle: methylcellulose (MC)
[4] = dose: 100.0 mg/kg/injection, schedule: Q01DX011 (ip), vehicle: methylcellulose (MC)
[5] = dose: 25.0 mg/kg/injection, schedule: Q01DX011 (ip), vehicle: methylcellulose (MC)
[6] = dose: 30.0 mg/kg/injection, schedule: Q01DX011 (ip), vehicle: carboxymethylcellulose (CMC)
[7] = dose: 30.0 mg/kg/injection, schedule: Q01DX011 (ip), vehicle: saline
[8] = dose: 15.0 mg/kg/injection, schedule: Q01DX011 (ip), vehicle: methylcellulose (MC)
[9] = dose: 31.0 mg/kg/injection, schedule: Q01DX011 (ip), vehicle: methylcellulose (MC)

With CC1C[C@@H]2[C@H]([C@@H](O)C[C@@]3(C)[C@H]2CC[C@]3(O)C(=O)CF)[C@@]2(C)CCC(=O)C=C12 (stereo not given in full) the T/C (dose: 1.2 mg/kg/injection, schedule: Q01DX011 (sc), vehicle: steriod suspending solution) was 108 % of control, the T/C (dose: 2.5 mg/kg/injection, schedule: Q01DX011 (sc), vehicle: steriod suspending solution) was 92 % of control and the T/C (dose: 8.0 mg/kg/injection, schedule: Q01DX011 (sc), vehicle: steriod suspending solution) was 82 % of control. The T/C (dose: 10.0 mg/kg/injection, schedule: Q01DX011 (sc), vehicle: steriod suspending solution) was 35 % of control, the T/C (dose: 16.0 mg/kg/injection, schedule: Q01DX011 (sc), vehicle: steriod suspending solution) was 75 % of control and the T/C (dose: 20.0 mg/kg/injection, schedule: Q01DX011 (sc), vehicle: steriod suspending solution) was 30 % of control. The T/C (dose: 32.0 mg/kg/injection, schedule: Q01DX011 (sc), vehicle: steriod suspending solution) was 55 % of control, the T/C (dose: 40.0 mg/kg/injection, schedule: Q01DX011 (sc), vehicle: steriod suspending solution) was 13 % of control and the T/C [1] was 5 % of control and 10 % of control. The T/C [2] was 9 % of control and 13 % of control.

In the case of CCCCNc1nc(N)nc(Nc2ccc(Br)cc2)c1N=O, the T/C (dose: 50.0 mg/kg/injection, schedule: Q01DX011 (ip), vehicle: carboxymethylcellulose (CMC)) was 18 % of control, the T/C [3] was 46 % of control and the T/C (dose: 100.0 mg/kg/injection, schedule: Q01DX011 (ip), vehicle: carboxymethylcellulose (CMC)) was 30 % of control. The T/C [4] was 44 % of control, the T/C (dose: 200.0 mg/kg/injection, schedule: Q01DX011 (ip), vehicle: carboxymethylcellulose (CMC)) was 53 % of control and the T/C (dose: 200.0 mg/kg/injection, schedule: Q01DX011 (ip), vehicle: methylcellulose (MC)) was 40 % of control. For the same molecule, the T/C (dose: 400.0 mg/kg/injection, schedule: Q01DX011 (ip), vehicle: methylcellulose (MC)) was 47 % of control and the T/C (dose: 800.0 mg/kg/injection, schedule: Q01DX011 (ip), vehicle: carboxymethylcellulose (CMC)) was 23 % of control.

In the case of Cn1c(=O)c2c(nc(Cl)n2CCl)n(C)c1=O, the T/C [5] was 60 % of control.

In the case of Cn1c(=O)c2c(nc(N/N=C/c3ccccc3C(=O)O)n2C)n(C)c1=O, the T/C [6] was 76 % of control, the T/C (dose: 60.0 mg/kg/injection, schedule: Q01DX011 (ip), vehicle: carboxymethylcellulose (CMC)) was 69 % of control and the T/C (dose: 120.0 mg/kg/injection, schedule: Q01DX011 (ip), vehicle: carboxymethylcellulose (CMC)) was 74 % of control. For the same molecule, the T/C (dose: 240.0 mg/kg/injection, schedule: Q01DX011 (ip), vehicle: carboxymethylcellulose (CMC)) was 62 % of control.

For CC(=O)Nc1c(Cl)c(Cl)c2c(c1Cl)Cc1cc(Br)ccc1-2, the T/C (dose: 12.0 mg/kg/injection, schedule: Q01DX011 (ip), vehicle: carboxymethylcellulose (CMC)) was 30 % of control and the T/C (dose: 25.0 mg/kg/injection, schedule: Q01DX011 (ip), vehicle: carboxymethylcellulose (CMC)) was 41 % of control.

In the case of CCCCn1cnc2c(SCc3ccncc3)nc(N)nc21, the T/C (dose: 3.12 mg/kg/injection, schedule: Q01DX011 (ip), vehicle: methylcellulose (MC)) was 35 % of control, the T/C (dose: 6.25 mg/kg/injection, schedule: Q01DX011 (ip), vehicle: methylcellulose (MC)) was 106 % of control and the T/C (dose: 12.5 mg/kg/injection, schedule: Q01DX011 (ip), vehicle: methylcellulose (MC)) was 19 % of control. The T/C [5] was 1 % of control and 13 % of control.

For CCCCn1cnc2c(SC)ncnc21, the T/C (dose: 5.0 mg/kg/injection, schedule: Q01DX011 (ip), vehicle: saline) was 89 % of control, the T/C (dose: 7.5 mg/kg/injection, schedule: Q01DX011 (ip), vehicle: saline) was 119 % of control and the T/C (dose: 10.0 mg/kg/injection, schedule: Q01DX011 (ip), vehicle: saline) was 65 % of control. For the same molecule, the T/C (dose: 20.0 mg/kg/injection, schedule: Q01DX011 (ip), vehicle: saline) was 20 % of control, the T/C [7] was 26 % of control and the T/C (dose: 40.0 mg/kg/injection, schedule: Q01DX011 (ip), vehicle: saline) was 14 % of control. The T/C (dose: 50.0 mg/kg/injection, schedule: Q01DX011 (ip), vehicle: saline) was 10 % of control, the T/C (dose: 53.0 mg/kg/injection, schedule: Q01DX011 (ip), vehicle: saline) was 5 % of control and the T/C (dose: 84.0 mg/kg/injection, schedule: Q01DX011 (ip), vehicle: saline) was 5 % of control. For the same molecule, the T/C (dose: 125.0 mg/kg/injection, schedule: Q01DX011 (ip), vehicle: saline) was 4 % of control and the T/C (dose: 187.0 mg/kg/injection, schedule: Q01DX011 (ip), vehicle: saline) was 1 % of control.

With Cc1ccc(CNc2ncnc3[nH]ncc23)cc1C the T/C [5] was 95 % of control, the T/C [3] was 72 % of control and the T/C [4] was 64 % of control. The T/C (dose: 300.0 mg/kg/injection, schedule: Q01DX011 (ip), vehicle: methylcellulose (MC)) was 68 % of control.

For Nc1nsnc1C(=O)O, the T/C (dose: 93.0 mg/kg/injection, schedule: Q01DX011 (ip), vehicle: carboxymethylcellulose (CMC)) was 80 % of control and the T/C (dose: 187.0 mg/kg/injection, schedule: Q01DX011 (ip), vehicle: carboxymethylcellulose (CMC)) was 98 % of control.

In the case of C[N+](C)(C)c1nc(N)nc2c1ncn2C1OC(CO)C(O)C1O (stereo not given), the T/C [7] was 114 % of control, the T/C (dose: 60.0 mg/kg/injection, schedule: Q01DX011 (ip), vehicle: saline) was 101 % of control and the T/C (dose: 120.0 mg/kg/injection, schedule: Q01DX011 (ip), vehicle: saline) was 52 % of control. The T/C (dose: 240.0 mg/kg/injection, schedule: Q01DX011 (ip), vehicle: saline) was 24 % of control and the T/C (dose: 400.0 mg/kg/injection, schedule: Q01DX011 (ip), vehicle: saline) was 3 % of control.

CSc1ncc(C)c(Nc2ccc(Br)cc2)n1 was tested, and the T/C [8] was 111 % of control and the T/C [9] was 109 % of control.

In the case of C#C[C@]1(O)CC[C@H]2[C@@H]3CCc4cc(O)ccc4[C@H]3CC[C@@]21C, the T/C (dose: 85.0 mg/kg/injection, schedule: Q01DX011 (sc), vehicle: steriod suspending solution) was 51 % of control and 53 % of control, the T/C [1] was 38 % of control and 43 % of control and the T/C [2] was 37 % of control and 43 % of control. For the same molecule, the T/C (dose: 680.0 mg/kg/injection, schedule: Q01DX011 (sc), vehicle: steriod suspending solution) was 23 % of control.

With S=P(N1CCCCCC1)(N1CC1)N1CC1 the T/C (dose: 1.0 mg/kg/injection, schedule: Q01DX011 (ip), vehicle: carboxymethylcellulose (CMC)) was 92 % of control, the T/C (dose: 1.75 mg/kg/injection, schedule: Q01DX011 (ip), vehicle: saline) was 58 % of control and the T/C (dose: 2.0 mg/kg/injection, schedule: Q01DX011 (ip), vehicle: carboxymethylcellulose (CMC)) was 90 % of control. For the same molecule, the T/C (dose: 3.13 mg/kg/injection, schedule: Q01DX011 (ip), vehicle: saline) was 68 % of control, the T/C (dose: 3.5 mg/kg/injection, schedule: Q01DX011 (ip), vehicle: saline) was 70 % of control and the T/C (dose: 4.0 mg/kg/injection, schedule: Q01DX011 (ip), vehicle: carboxymethylcellulose (CMC)) was 38 % of control. The T/C (dose: 6.25 mg/kg/injection, schedule: Q01DX011 (ip), vehicle: saline) was 26 % of control and 50 % of control, the T/C (dose: 6.75 mg/kg/injection, schedule: Q01DX011 (ip), vehicle: methylcellulose (MC)) was 36 % of control and the T/C (dose: 7.0 mg/kg/injection, schedule: Q01DX011 (ip), vehicle: saline) was 42 % of control. The T/C (dose: 7.5 mg/kg/injection, schedule: Q01DX011 (ip), vehicle: carboxymethylcellulose (CMC)) was 96 % of control, the T/C (dose: 8.0 mg/kg/injection, schedule: Q01DX011 (ip), vehicle: carboxymethylcellulose (CMC)) was 23 % of control and the T/C (dose: 13.5 mg/kg/injection, schedule: Q01DX011 (ip), vehicle: methylcellulose (MC)) was 33 % of control. The T/C (dose: 13.5 mg/kg/injection, schedule: Q01DX011 (ip), vehicle: saline) was 29 % of control, the T/C (dose: 14.0 mg/kg/injection, schedule: Q01DX011 (ip), vehicle: saline) was 5 % of control and the T/C (dose: 15.0 mg/kg/injection, schedule: Q01DX011 (ip), vehicle: carboxymethylcellulose (CMC)) was 43 % of control. The T/C (dose: 16.0 mg/kg/injection, schedule: Q01DX011 (ip), vehicle: carboxymethylcellulose (CMC)) was 6 % of control, the T/C (dose: 27.0 mg/kg/injection, schedule: Q01DX011 (ip), vehicle: saline) was 25 % of control and the T/C [6] was 10 % of control. For the same molecule, the T/C (dose: 54.0 mg/kg/injection, schedule: Q01DX011 (ip), vehicle: saline) was 24 % of control.

With CC1CN1C(=O)c1cc(C(=O)N2CC2C)cc(C(=O)N2CC2C)c1 (stereo not given) the T/C [8] was 69 % of control and the T/C (dose: 30.0 mg/kg/injection, schedule: Q01DX011 (ip), vehicle: methylcellulose (MC)) was 57 % of control and 64 % of control.

In the case of CCc1c(Cl)nc(N)nc1Nc1ccc(Cl)c(Cl)c1, the T/C [8] was 117 % of control and the T/C [9] was 123 % of control.
